Patent publication US20260250318A1, “COMPOSITIONS AND METHODS FOR CROSSING THE BLOOD BRAIN BARRIER” (VOYAGER THERAPEUTICS, INC., priority 2022, published 2026)

Assays:
[1] = tested on: brains, heart, liver, muscle, and DRG of the NHPs; assay: Maturation of TTM-001 and TTM-002 capsids, NGS enrichment in NHP tissues; assay type: in vivo; details: relative to AAV9 control
Outline: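 Variants carry mutations within and flanking the loop IV peptide insert: positions 450–466 were triplet-randomized, while positions 449–466 received low-frequency point mutations. The combined pool went into two NHPs, and each peptide was scored by NGS enrichment ratio against AAV9.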

brain = assay: Matured TTM-001 and TTM-002 variants, NGS enrichment in mouse brain; assay type: in vivo, mice; details: relative to AAV9 control
[2] = NGS fold-enrichment of RNA, NHP brain
[3] = NGS fold-enrichment, DRG of NHPs
[4] = NGS fold-enrichment, NHP liver DNA
[5] = NGS fold-enrichment, NHP liver RNA
[6] = NGS fold-enrichment, NHP muscle
[7] = NGS fold-enrichment, RNA, brain of NHPs
[8] = NGS fold-enrichment, heart of NHPs
[9] = NGS fold-enrichment, liver DNA of NHPs
[10] = NGS fold-enrichment, liver RNA of NHPs
[11] = NGS fold-enrichment, muscle of NHPs
[12] = NGS fold-enrichment, brain of mice
[13] = NGS fold-enrichment, mouse brain

## KTERVSGSPHSKAQNQQT
[1]; [2]
  Fold Enrichment relative to AAV9, Brain (NHP): 96.943 fold
[1]; NGS fold-enrichment of matured AAV capsid variants, NHP brain, RNA
  Fold Enrichment relative to AAV9, Brain (NHP): 96.943 fold
[1]; [3]
  Fold Enrichment relative to AAV9, DRG (NHP): 0.000 fold
[1]; NGS fold-enrichment, NHP DRG
  Fold Enrichment relative to AAV9, DRG (NHP): 0.000 fold
[1]; NGS fold-enrichment, NHP heart
  Fold Enrichment relative to AAV9, Heart (NHP): 0.000 fold
[1]; [4]
  Fold Enrichment relative to AAV9, Liver DNA (NHP): 0.144 fold
[1]; [5]
  Fold Enrichment relative to AAV9, Liver RNA (NHP): 0.000 fold
[1]; [6]
  Fold Enrichment relative to AAV9, Muscle (NHP): 0.000 fold
[1]; [7]
  Fold Enrichment relative to AAV9, Brain (NHP): 96.943 fold
[1]; [8]
  Fold Enrichment relative to AAV9, Heart (NHP): 0.000 fold
[1]; [9]
  Fold Enrichment relative to AAV9, Liver DNA (NHP): 0.144 fold
[1]; [10]
  Fold Enrichment relative to AAV9, Liver RNA (NHP): 0.000 fold
[1]; [11]
  Fold Enrichment relative to AAV9, Muscle (NHP): 0.000 fold
[1]; NHP DRG
  Fold Enrichment relative to AAV9, DRG (NHP): 0.000 fold
[1]; NHP heart
  Fold Enrichment relative to AAV9, Heart (NHP): 0.000 fold
[1]; NHP liver, DNA
  Fold Enrichment relative to AAV9, Liver DNA (NHP): 0.144 fold
[1]; NHP liver, RNA
  Fold Enrichment relative to AAV9, Liver RNA (NHP): 0.000 fold
[1]; NHP muscle
  Fold Enrichment relative to AAV9, Muscle (NHP): 0.000 fold
brain; [12]
  Fold Enrichment relative to AAV9, Brain (Mouse): 135.438 fold
brain; [13]
  Fold Enrichment relative to AAV9, Brain (Mouse): 135.438 fold
brain; mouse brain
  Fold Enrichment relative to AAV9, Brain (Mouse): 135.438 fold

## KTESAHDSPHKSGQNQQT
[1]; [2]
  Fold Enrichment relative to AAV9, Brain (NHP): 80.810 fold
[1]; NGS fold-enrichment, NHP DRG
  Fold Enrichment relative to AAV9, DRG (NHP): 0.000 fold
[1]; NGS fold-enrichment, NHP heart
  Fold Enrichment relative to AAV9, Heart (NHP): 0.039 fold
[1]; [4]
  Fold Enrichment relative to AAV9, Liver DNA (NHP): 0.000 fold
[1]; [5]
  Fold Enrichment relative to AAV9, Liver RNA (NHP): 0.000 fold
[1]; [6]
  Fold Enrichment relative to AAV9, Muscle (NHP): 0.000 fold
brain; [13]
  Fold Enrichment relative to AAV9, Brain (Mouse): 13.338 fold

## KTESASGSPHSKAQNQQT
[1]; [3]
  Fold Enrichment relative to AAV9, DRG (NHP): 0.000 fold
[1]; [7]
  Fold Enrichment relative to AAV9, Brain (NHP): 68.651 fold
[1]; [8]
  Fold Enrichment relative to AAV9, Heart (NHP): 0.000 fold
[1]; [9]
  Fold Enrichment relative to AAV9, Liver DNA (NHP): 0.084 fold
[1]; [10]
  Fold Enrichment relative to AAV9, Liver RNA (NHP): 0.274 fold
[1]; [11]
  Fold Enrichment relative to AAV9, Muscle (NHP): 0.000 fold
brain; [12]
  Fold Enrichment relative to AAV9, Brain (Mouse): 80.500 fold

## KTESGHDSPHKSGQNQQT
[1]; [2]
  Fold Enrichment relative to AAV9, Brain (NHP): 86.513 fold
[1]; NGS fold-enrichment, NHP DRG
  Fold Enrichment relative to AAV9, DRG (NHP): 0.000 fold
[1]; NGS fold-enrichment, NHP heart
  Fold Enrichment relative to AAV9, Heart (NHP): 7.414 fold
[1]; [4]
  Fold Enrichment relative to AAV9, Liver DNA (NHP): 0.038 fold
[1]; [5]
  Fold Enrichment relative to AAV9, Liver RNA (NHP): 0.000 fold
[1]; [6]
  Fold Enrichment relative to AAV9, Muscle (NHP): 0.000 fold
brain; [13]
  Fold Enrichment relative to AAV9, Brain (Mouse): 13.163 fold

## KTESHSGSPHSKAQNQQT
[1]; [3]
  Fold Enrichment relative to AAV9, DRG (NHP): 0.000 fold
[1]; [7]
  Fold Enrichment relative to AAV9, Brain (NHP): 61.947 fold
[1]; [8]
  Fold Enrichment relative to AAV9, Heart (NHP): 0.000 fold
[1]; [9]
  Fold Enrichment relative to AAV9, Liver DNA (NHP): 0.106 fold
[1]; [10]
  Fold Enrichment relative to AAV9, Liver RNA (NHP): 1.480 fold
[1]; [11]
  Fold Enrichment relative to AAV9, Muscle (NHP): 0.000 fold
brain; [12]
  Fold Enrichment relative to AAV9, Brain (Mouse): 52.506 fold

## KTESRHDSPHKSGQNQQT
[1]; [2]
  Fold Enrichment relative to AAV9, Brain (NHP): 81.766 fold
[1]; NGS fold-enrichment, NHP DRG
  Fold Enrichment relative to AAV9, DRG (NHP): 0.000 fold
[1]; NGS fold-enrichment, NHP heart
  Fold Enrichment relative to AAV9, Heart (NHP): 0.011 fold
[1]; [4]
  Fold Enrichment relative to AAV9, Liver DNA (NHP): 0.036 fold
[1]; [5]
  Fold Enrichment relative to AAV9, Liver RNA (NHP): 0.052 fold
[1]; [6]
  Fold Enrichment relative to AAV9, Muscle (NHP): 0.000 fold
brain; [13]
  Fold Enrichment relative to AAV9, Brain (Mouse): 6.975 fold

## KTESTSGSPHSKAQNQQT
[1]; [3]
  Fold Enrichment relative to AAV9, DRG (NHP): 0.000 fold
[1]; [7]
  Fold Enrichment relative to AAV9, Brain (NHP): 66.649 fold
[1]; [8]
  Fold Enrichment relative to AAV9, Heart (NHP): 0.009 fold
[1]; [9]
  Fold Enrichment relative to AAV9, Liver DNA (NHP): 0.176 fold
[1]; [10]
  Fold Enrichment relative to AAV9, Liver RNA (NHP): 1.688 fold
[1]; [11]
  Fold Enrichment relative to AAV9, Muscle (NHP): 0.000 fold
brain; [12]
  Fold Enrichment relative to AAV9, Brain (Mouse): 95.861 fold

## KTESWSGSPHSKAQNQQT
[1]; [3]
  Fold Enrichment relative to AAV9, DRG (NHP): 0.000 fold
[1]; [7]
  Fold Enrichment relative to AAV9, Brain (NHP): 69.144 fold
[1]; [8]
  Fold Enrichment relative to AAV9, Heart (NHP): 0.000 fold
[1]; [9]
  Fold Enrichment relative to AAV9, Liver DNA (NHP): 0.019 fold
[1]; [10]
  Fold Enrichment relative to AAV9, Liver RNA (NHP): 0.000 fold
[1]; [11]
  Fold Enrichment relative to AAV9, Muscle (NHP): 0.000 fold
brain; [12]
  Fold Enrichment relative to AAV9, Brain (Mouse): 67.699 fold

## KTETHSGSPHSKAQNQQT
[1]; [2]
  Fold Enrichment relative to AAV9, Brain (NHP): 77.974 fold
[1]; [3]
  Fold Enrichment relative to AAV9, DRG (NHP): 0.000 fold
[1]; NGS fold-enrichment, NHP DRG
  Fold Enrichment relative to AAV9, DRG (NHP): 0.000 fold
[1]; NGS fold-enrichment, NHP heart
  Fold Enrichment relative to AAV9, Heart (NHP): 0.067 fold
[1]; [4]
  Fold Enrichment relative to AAV9, Liver DNA (NHP): 0.512 fold
[1]; [5]
  Fold Enrichment relative to AAV9, Liver RNA (NHP): 0.000 fold
[1]; [6]
  Fold Enrichment relative to AAV9, Muscle (NHP): 0.000 fold
[1]; [7]
  Fold Enrichment relative to AAV9, Brain (NHP): 77.974 fold
[1]; [8]
  Fold Enrichment relative to AAV9, Heart (NHP): 0.067 fold
[1]; [9]
  Fold Enrichment relative to AAV9, Liver DNA (NHP): 0.512 fold
[1]; [10]
  Fold Enrichment relative to AAV9, Liver RNA (NHP): 0.000 fold
[1]; [11]
  Fold Enrichment relative to AAV9, Muscle (NHP): 0.000 fold
brain; [12]
  Fold Enrichment relative to AAV9, Brain (Mouse): 57.287 fold
brain; [13]
  Fold Enrichment relative to AAV9, Brain (Mouse): 57.287 fold
